Experimental data reported in US12109220B2, “Compositions for use in the reduction of nociception in children” (SOCIETE DES PRODUITS NESTLE S.A., priority 2017, dated 2024).
pEC50: −log10 of the molar value. “Also recorded” adds a separate entry of the source.

Target: GPR35 (Homo sapiens, UniProt Q9HC97)
Assay: PathHunter β-Arrestin assay of GPR35 activation (DiscoverX)
Format: cell-based
Settings: for pEC50: cell based β-arrestin recruitment, 3x dilutions from 10 mM, duplicate; for activation of GPR35 (in words): single HMOs, highest concentration tested 10 mM
Experimental: Six human milk oligosaccharides (LNnT, LNT, 2-FL, diFL, 6′ SL and 3-SL) were sreened for their ability to activate the GPR35 receptor in an in vitro assay.
The GPR35 cell line was expanded from frozen stocks and cultured according to standard procedures. Cells were seeded in a total volume of 20 μL into white walled, 384-well microplates and incubated at 37° C. for the appropriate time prior to testing. All testing was done in duplicate.
HMO samples were shipped to DiscoverX as concentrated stocks in Phosphate Buffered saline. On the test day, a 5× compound working intermediate was prepared in PBS. Five μL of 5× sample was added to cells and incubated at room temperature for 3 to 5 hours.
Assay signal was generated through a single addition of 12.5 μL (50% v/v) of PathHunter Detection reagent cocktail, followed by one-hour incubation at room temperature. Microplates were read following signal generation with a PerkinElmer Envision™ instrument for chemiluminescent signal detection.
Zaprinast (which is known to be an activator of GPR35) was used as positive control.
Percentage activity was calculated using the following formula: % Activity=100%×(mean RLU of test sample−mean RLU of vehicle control)/(mean MAX control ligand−mean RLU of vehicle control).
Dose-responses were generated by iterative 3× dilutions of the highest concentration tested (10 mM).
The samples were diluted in 1×PBS (pH ˜7) at 5× concentrations and sent to DiscoverX. The GPR35 activation assay was performed as described in Example 2.

Sequence of GPR35 (Q9HC97 whole entry): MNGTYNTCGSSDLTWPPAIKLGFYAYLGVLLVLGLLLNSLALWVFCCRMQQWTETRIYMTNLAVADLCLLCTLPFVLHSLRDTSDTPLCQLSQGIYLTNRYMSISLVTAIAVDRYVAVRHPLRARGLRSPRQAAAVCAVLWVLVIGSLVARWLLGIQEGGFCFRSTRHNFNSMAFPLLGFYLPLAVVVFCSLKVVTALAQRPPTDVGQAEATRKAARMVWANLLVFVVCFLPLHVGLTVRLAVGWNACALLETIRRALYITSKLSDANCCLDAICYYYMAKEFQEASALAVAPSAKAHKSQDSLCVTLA
Sequence of GPR35 (P32121 whole entry partner): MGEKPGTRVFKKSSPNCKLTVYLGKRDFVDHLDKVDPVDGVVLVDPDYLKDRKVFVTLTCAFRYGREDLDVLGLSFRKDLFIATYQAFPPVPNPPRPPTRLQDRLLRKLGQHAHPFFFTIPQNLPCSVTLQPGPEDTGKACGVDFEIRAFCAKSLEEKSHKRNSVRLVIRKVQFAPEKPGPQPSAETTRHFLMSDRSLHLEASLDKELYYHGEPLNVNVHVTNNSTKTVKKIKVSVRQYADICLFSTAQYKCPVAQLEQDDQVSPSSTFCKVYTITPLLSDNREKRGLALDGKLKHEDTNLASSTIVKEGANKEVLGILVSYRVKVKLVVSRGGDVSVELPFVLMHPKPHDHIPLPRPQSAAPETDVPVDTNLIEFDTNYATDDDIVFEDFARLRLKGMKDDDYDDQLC

Question: How did the pEC50 turn out when `CC(=O)N[C@H]1[C@H]([C@H](O)[C@H](O)CO)O[C@@](OC[C@H]2O[C@@H](O[C@H]3[C@H](O)[C@@H](O)[C@H](O)O[C@@H]3CO)[C@H](O)[C@@H](O)[C@H]2O)(C(=O)O)C[C@@H]1O` [6′SL, 6′-sialyllactose] was run?
Answer: Its pEC50 is 2.19.

Question: With `CC(=O)N[C@H]1[C@H](O[C@H]2[C@@H](O)[C@@H](CO)O[C@@H](O[C@H]3[C@H](O)[C@@H](O)C(O)O[C@@H]3CO)[C@@H]2O)O[C@H](CO)[C@@H](O)[C@@H]1O[C@@H]1O[C@H](CO)[C@H](O)[C@H](O)[C@H]1O` (stereo partly shown) [LNT, lacto-N-tetraose] as the compound, how does the pEC50 read?
Answer: The pEC50 was 2.35.

Question: Which results are given for `C[C@@H]1O[C@@H](O[C@H]2[C@H](O[C@H]3[C@H](O[C@@H]4O[C@@H](C)[C@@H](O)[C@@H](O)[C@@H]4O)[C@@H](O)C(O)O[C@@H]3CO)O[C@H](CO)[C@H](O)[C@@H]2O)[C@@H](O)[C@H](O)[C@@H]1O` (stereo partly shown) [diFL, difucosyllactose]?
Answer: activation of GPR35 (in words): No activation; activation of GPR35 (in words) (listed as difucosyllactose): do not activate

Question: `CC(=O)N[C@H]1[C@H](O[C@H]2[C@@H](O)[C@@H](CO)O[C@@H](O[C@H]3[C@H](O)[C@@H](O)C(O)O[C@@H]3CO)[C@@H]2O)O[C@H](CO)[C@@H](O[C@@H]2O[C@H](CO)[C@H](O)[C@H](O)[C@H]2O)[C@@H]1O` (mixture of isomers) [LNnT, lacto-N-neotetraose] was tested. Which “activation of GPR35 (in words)” value did it give?
Answer: Its value is “No activation; also recorded: do not activate”.

Question: Which results are given for `CC(=O)N[C@H]1[C@H]([C@H](O)[C@H](O)CO)O[C@@](O[C@H]2[C@@H](O)[C@@H](CO)O[C@@H](O[C@H]3[C@H](O)[C@@H](O)C(O)O[C@@H]3CO)[C@@H]2O)(C(=O)O)C[C@@H]1O` (stereo partly shown) [3SL, 3′-sialyllactose]?
Answer: activation of GPR35 (in words): No activation; activation of GPR35 (in words) (listed as 3-SL): do not activate
